Reference: patent US6861434B2, “Antipsychotic aminomethyl derivatives of 1,3,7,8-tetrahydro-6,9-dioxa-1,3-diaza-cyclopenta[a]-naphthalen-2-one” (Wyeth, priority 2001, dated 2005)
Where a name gives a salt, the structure may show the parent alone.

Legend:
dopamine D2 receptor = target: T1, dopamine D2 receptor (Rattus norvegicus, UniProt P61169); assay: Dopamine D2 receptor affinity, 3H-quinpirole binding in homogenized rat striatal brain tissue
T1 construct: from tissue; host or cells: rat striatal brain tissue homogenate
Experimental: Affinity for the dopamine D2 receptor was established by a modification of the standard experimental test procedure of Seemen and Schaus, European Journal of Pharmacology 203: 105-109, 1991, wherein homogenized rat striatal brain tissue is incubated with ^3H-quinpirole and various concentrations of test compound, filtered and washed and counted in a Betaplate scintillation counter.

T1 sequence (P61169 whole entry): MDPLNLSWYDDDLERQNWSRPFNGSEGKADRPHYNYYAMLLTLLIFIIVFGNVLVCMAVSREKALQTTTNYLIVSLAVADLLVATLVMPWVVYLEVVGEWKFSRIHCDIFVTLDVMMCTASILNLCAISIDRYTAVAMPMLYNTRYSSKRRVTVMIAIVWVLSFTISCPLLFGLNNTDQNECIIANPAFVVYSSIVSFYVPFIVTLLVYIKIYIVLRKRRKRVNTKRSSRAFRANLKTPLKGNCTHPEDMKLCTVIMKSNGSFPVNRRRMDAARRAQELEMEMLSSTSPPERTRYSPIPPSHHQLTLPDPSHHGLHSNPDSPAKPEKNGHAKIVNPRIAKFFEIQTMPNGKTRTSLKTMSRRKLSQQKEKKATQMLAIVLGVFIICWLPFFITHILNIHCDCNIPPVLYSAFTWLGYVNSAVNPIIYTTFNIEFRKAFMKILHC

SMILES | IC50 (dopamine D2 receptor) [nM] | melting point
O=c1[nH]c2ccc3c(c2[nH]1)OC(CN1CC=C(c2ccccc2)CC1)CO3 (stereo not drawn) [Example 3, 8-(4-Phenyl-5,6-dihydro-2H-pyridin-1-ylmethyl)-1,3,7,8-tetrahydro-6,9-dioxa-1,3-diaza-cyclopenta[a]naphthalen-2-one] | 1.3 | 
O=c1[nH]c2ccc3c(c2[nH]1)OC(CNCCCc1c[nH]c2ccccc12)CO3 (stereo not drawn) (as salt: hydrochloride) [Example 8, 8-{[3-(1H-indol-3-yl)-propylamino]-methyl}-1,3,7,8-tetrahydro-6,9-dioxa-1,3-diaza-cyclopenta[a]naphthalen-2-one] |  | 200 to 207 °C (dec.)
O=c1[nH]c2ccc3c(c2[nH]1)OC(CNCC12CC4CC(CC(C4)C1)C2)CO3 (stereo not drawn) (as salt: hydrochloride) (hydrate or solvate) [Example 4, 8-{[(Adamantan-1-ylmethyl)-amino]-methyl}-1,3,7,8-tetrahydro-6,9-dioxa-1,3-diaza-cyclopenta[a]naphthalen-2-one] |  | > 250 °C
O=c1[nH]c2ccc3c(c2[nH]1)OC(CNCCCCc1ccccc1)CO3 (stereo not drawn) (as salt: fumarate) (hydrate or solvate) [Example 2, 8-[(4-Phenyl-butylamino)-methyl]-1,3,7,8-tetrahydro-6,9-dioxa-1,3-diaza-cyclopenta[a]naphthalen-2-one] |  | 224 to 226 °C
O=c1[nH]c2ccc3c(c2[nH]1)OC(CNCC12CC4CC(CC(C4)C1)C2)CO3 (stereo not drawn) [Example 4, 8-{[(Adamantan-1-ylmethyl)-amino]-methyl}-1,3,7,8-tetrahydro-6,9-dioxa-1,3-diaza-cyclopenta[a]naphthalen-2-one] | 0.84 | 
O=c1[nH]c2ccc3c(c2[nH]1)OC(CN1CC=C(c2ccccc2)CC1)CO3 (stereo not drawn) (as salt: fumarate) (hydrate or solvate) [Example 3, 8-(4-Phenyl-5,6-dihydro-2H-pyridin-1-ylmethyl)-1,3,7,8-tetrahydro-6,9-dioxa-1,3-diaza-cyclopenta[a]naphthalen-2-one] |  | 205 to 209 °C
O=c1[nH]c2ccc3c(c2[nH]1)OC(CNCCCCc1ccccc1)CO3 (stereo not drawn) [Example 2, 8-[(4-Phenyl-butylamino)-methyl]-1,3,7,8-tetrahydro-6,9-dioxa-1,3-diaza-cyclopenta[a]naphthalen-2-one] | 0.18 | 

Other lines, results leading:

IC50 (dopamine D2 receptor) [nM] | melting point | SMILES
6.78 |  | O=c1[nH]c2ccc3c(c2[nH]1)O[C@@H](CN1CCc2ccccc2C1)CO3 [Example 5]
0.55 |  | CC(=O)Nc1cccc(OCCCNCC2COc3ccc4[nH]c(=O)[nH]c4c3O2)c1 (stereo not drawn) [Example 7, N-(3-{3-[(2-Oxo-2,3,7,8-tetrahydro-1H-6,9-dioxa-1,3-diaza-cyclopenta[a]naphthalen-8-ylmethyl)-amino]propoxy}-phenyl)-acetamide]
 | 149 to 151 °C | O=c1[nH]c2ccc3c(c2[nH]1)OC(CNCc1ccccc1)CO3 (stereo not drawn) (as salt: fumarate) (hydrate or solvate) [Example 1, 8-(Benzylamino-methyl)-1,3,7,8-tetrahydro-6,9-dioxa-1,3-diaza-cyclopenta[a]naphthalen-2-one]
1.43 |  | O=C(c1ccc(F)cc1)C1CCN(C[C@H]2COc3ccc4[nH]c(=O)[nH]c4c3O2)CC1 [Example 6, 8-[4-(4-Fluoro-benzoyl)-piperidin-1-ylmethyl]-1,3,7,8-tetrahydro-6,9-dioxa-1,3-diaza-cyclopenta[a]naphthalen-2-one]
0.39 |  | O=c1[nH]c2ccc3c(c2[nH]1)OC(CNCc1ccccc1)CO3 (stereo not drawn) [Example 1, 8-(Benzylamino-methyl)-1,3,7,8-tetrahydro-6,9-dioxa-1,3-diaza-cyclopenta[a]naphthalen-2-one]
0.02 |  | O=c1[nH]c2ccc3c(c2[nH]1)OC(CNCCCc1c[nH]c2ccccc12)CO3 (stereo not drawn) [Example 8, 8-{[3-(1H-indol-3-yl)-propylamino]-methyl}-1,3,7,8-tetrahydro-6,9-dioxa-1,3-diaza-cyclopenta[a]naphthalen-2-one]
 | > 275 °C | O=c1[nH]c2ccc3c(c2[nH]1)OC(CN1CCC2C=CC=CC2C1)CO3 (stereo not drawn) (as salt: hydrochloride) [Example 5]
 | 125 °C (dec.) | CC(=O)Nc1cccc(OCCCNCC2COc3ccc4[nH]c(=O)[nH]c4c3O2)c1 (stereo not drawn) (as salt: fumarate) (hydrate or solvate) [Example 7, N-(3-{3-[(2-Oxo-2,3,7,8-tetrahydro-1H-6,9-dioxa-1,3-diaza-cyclopenta[a]naphthalen-8-ylmethyl)-amino]propoxy}-phenyl)-acetamide]
